In publication PMC11873939, “Target Identification with Live-Cell Photoaffinity Labeling and Mechanism of Action Elucidation of ARN23765, a Highly Potent CFTR Corrector” (Journal of Medicinal Chemistry, 2025):

Key:
CFTR MSD2 = target: T1, CFTR MSD2 (Homo sapiens, UniProt P13569); test: Cycloheximide chase assay in transfected HEK293 cells; format: cell-based; settings: HEK293, 10 nM 24 h, then 6 h of cycloheximide treatment
T1 construct: A52-tagged MSD2 (residues 837–1196); expressed in transfected cells; host or cells: HEK293 (transient, JetPEI)
Procedure: (§1) HEK293 cells were transfected with MSD1- or MSD2-fragments as previously described.[39] After 18 h, cells were treated with either 0.2% DMSO or ARN23765 (10 nM). Following 24 h treatment, the protein synthesis was stopped by addition of a medium containing 0.5 mg/mL cycloheximide and either DMSO (0.2%) or ARN23765 (10 nM). The cells were incubated at 37 °C and lysed at various time periods (0–6 h). The whole cell extracts were then analyzed by WB, as described in the supplementary methods of the Supporting Information.

CFTR MSD1 = target: T2, CFTR MSD1 (Homo sapiens, UniProt P13569); test: as above; format: cell-based; settings: HEK293, 10 nM 24 h, then 6 h of cycloheximide treatment
T2 construct: MSD1 (residues 1–380); expressed in transfected cells; host or cells: HEK293 (transient, JetPEI)
Procedure: as §1

CFTR = tested on: CFTR; design: method as in PMID 32128418; settings: HS-YFP assay; cited from earlier work
[1] = target: T3, F508del-CFTR double mutants (K68I, N71I, R74A, F81A, A198Y, W361A, S364F) (Homo sapiens, UniProt P13569, A198Y/DEL508-508); test: Protein maturation assay (WB) of F508del-CFTR double mutants in transfected HEK293 cells; format: cell-based; settings: F508del/A198Y-CFTR; HEK293, 10 nM, 24 h
T3 construct: CFTR identification in pull-down studies and analysis of full-length CFTR in protein maturation assays; expressed in transfected cells; host or cells: HEK293 (transient, pCDNA3.1 constructs, JetPEI)
Procedure: (§2) To confirm in cells the above-predicted binding site for ARN23765, we introduced the investigated single-site mutations into the F508del-CFTR coding sequence. The rescue of double mutant proteins (F508del + new mutation) by ARN23765 was assessed with WB analysis of protein maturation and evaluation of channel activity (FLIPR assay)[40] in transfected HEK293 cells. Since correctors 3151 (type II)[16] and VX-445 (type III)[18] have been reported to bind to different CFTR sites, we used these compounds as controls. As expected, ARN23765-induced maturation of F508del-CFTR was not affected by the N71I substitution. […] Indeed, the corrector was no longer able to promote protein maturation (Figure 9A and S8A). […] The results of protein maturation analysis were mostly confirmed by functional data (Figure 9B and S8B), in which the channel activity of double-mutated proteins was evaluated in terms of the change in cell membrane potential change (FLIPR assay).
(§3) HEK293 cells were plated in 24-wells at around 80% of confluence and transfected with constructs coding for F508del-CFTR or mutants using JetPEI reagent (101000053, Polyplus Technology) following the manufacturer’s instructions. After 24 h, the correctors were added for a further 24 h. Correctors were used at the following concentrations: ARN23765 (10 nM), VX-445 (3 μM), and 3151 (10 μM). For binding site analysis experiments, the cells were kept either at 37 °C (Figure S8) or moved to 30 °C (Figure 9) during incubation with the selected correctors. VX-445 and corrector 3151 were mixed together as a control for maximal protein correction. DMSO (0.2%) was added to nontreated controls. After treatment, cells were lysed in RIPA buffer [50 mM tris-HCl pH 8, 150 mM NaCl, 1% NP40, 0.5% sodium deoxycolate, 0.1% SDS, 2.0 mM EDTA] and lysates were analyzed with WB, as described in the supplementary methods of the Supporting Information. […]
(§4) Site-directed mutagenesis
(§5) Desired mutations were introduced using the QuikChange II XL site-directed mutagenesis kit (200522,
(§6) Agilent Technologies) according to the manufacturer’s instructions. F508del-CFTR pCDNA3.1 was used
(§7) as a template for the synthesis of mutated constructs K68I/F508del-CFTR, N71I/F508del-CFTR,
(§8) S364F/F508del-CFTR. The introduction of the mutation and the whole CFTR sequence were checked by
(§9) Sanger sequencing. Mutants R1070W/F508del-CFTR and R170G-
(§10) CFTR were produced as previously described.4

[2] = target: T4, F508del-CFTR double mutants (K68I, N71I, R74A, F81A, A198Y, W361A, S364F) (Homo sapiens, UniProt P13569, DEL508-508/F81A); test: as above; format: cell-based; settings: F508del/F81A-CFTR; HEK293, 10 nM, 24 h
T4 construct: CFTR identification in pull-down studies and analysis of full-length CFTR in protein maturation assays; expressed in transfected cells; host or cells: HEK293 (transient, pCDNA3.1 constructs, JetPEI)
Procedure: as §2, §3, §4, §5, §6, §7, §8, §9, §10

[3] = target: T5, F508del-CFTR double mutants (K68I, N71I, R74A, F81A, A198Y, W361A, S364F) (Homo sapiens, UniProt P13569, DEL508-508/R74A); test: as above; format: cell-based; settings: F508del/R74A-CFTR; HEK293, 10 nM, 24 h
T5 construct: CFTR identification in pull-down studies and analysis of full-length CFTR in protein maturation assays; expressed in transfected cells; host or cells: HEK293 (transient, pCDNA3.1 constructs, JetPEI)
Procedure: as §2, §3, §4, §5, §6, §7, §8, §9, §10

[4] = target: T6, F508del-CFTR double mutants (K68I, N71I, R74A, F81A, A198Y, W361A, S364F) (Homo sapiens, UniProt P13569, DEL508-508/W361A); test: as above; format: cell-based; settings: F508del/W361A-CFTR; HEK293, 10 nM, 24 h
T6 construct: CFTR identification in pull-down studies and analysis of full-length CFTR in protein maturation assays; expressed in transfected cells; host or cells: HEK293 (transient, pCDNA3.1 constructs, JetPEI)
Procedure: as §2, §3, §4, §5, §6, §7, §8, §9, §10

F508del/R1070W-CFTR = target: T7, F508del/R1070W-CFTR (Homo sapiens, UniProt P13569, DEL508-508/R1070W); test: Protein maturation assay (WB, band C/(C+B)) in transfected HEK293 cells; format: cell-based; settings: HEK293, 24 h; ARN23765 10 nM, VX-661 3 μM
T7 construct: CFTR identification in pull-down studies and analysis of full-length CFTR in protein maturation assays; expressed in transfected cells; host or cells: HEK293 (transient)
Procedure: HEK293 cells were plated in 24-wells at around 80% of confluence and transfected with constructs coding for F508del-CFTR or mutants using JetPEI reagent (101000053, Polyplus Technology) following the manufacturer’s instructions. After 24 h, the correctors were added for a further 24 h. […] For binding site analysis experiments, the cells were kept either at 37 °C (Figure S8) or moved to 30 °C (Figure 9) during incubation with the selected correctors. VX-445 and corrector 3151 were mixed together as a control for maximal protein correction. DMSO (0.2%) was added to nontreated controls. After treatment, cells were lysed in RIPA buffer [50 mM tris-HCl pH 8, 150 mM NaCl, 1% NP40, 0.5% sodium deoxycolate, 0.1% SDS, 2.0 mM EDTA] and lysates were analyzed with WB, as described in the supplementary methods of the Supporting Information.

T7 sequence (P13569 with tags, fused parts or gaps DEL508-508/R1070W): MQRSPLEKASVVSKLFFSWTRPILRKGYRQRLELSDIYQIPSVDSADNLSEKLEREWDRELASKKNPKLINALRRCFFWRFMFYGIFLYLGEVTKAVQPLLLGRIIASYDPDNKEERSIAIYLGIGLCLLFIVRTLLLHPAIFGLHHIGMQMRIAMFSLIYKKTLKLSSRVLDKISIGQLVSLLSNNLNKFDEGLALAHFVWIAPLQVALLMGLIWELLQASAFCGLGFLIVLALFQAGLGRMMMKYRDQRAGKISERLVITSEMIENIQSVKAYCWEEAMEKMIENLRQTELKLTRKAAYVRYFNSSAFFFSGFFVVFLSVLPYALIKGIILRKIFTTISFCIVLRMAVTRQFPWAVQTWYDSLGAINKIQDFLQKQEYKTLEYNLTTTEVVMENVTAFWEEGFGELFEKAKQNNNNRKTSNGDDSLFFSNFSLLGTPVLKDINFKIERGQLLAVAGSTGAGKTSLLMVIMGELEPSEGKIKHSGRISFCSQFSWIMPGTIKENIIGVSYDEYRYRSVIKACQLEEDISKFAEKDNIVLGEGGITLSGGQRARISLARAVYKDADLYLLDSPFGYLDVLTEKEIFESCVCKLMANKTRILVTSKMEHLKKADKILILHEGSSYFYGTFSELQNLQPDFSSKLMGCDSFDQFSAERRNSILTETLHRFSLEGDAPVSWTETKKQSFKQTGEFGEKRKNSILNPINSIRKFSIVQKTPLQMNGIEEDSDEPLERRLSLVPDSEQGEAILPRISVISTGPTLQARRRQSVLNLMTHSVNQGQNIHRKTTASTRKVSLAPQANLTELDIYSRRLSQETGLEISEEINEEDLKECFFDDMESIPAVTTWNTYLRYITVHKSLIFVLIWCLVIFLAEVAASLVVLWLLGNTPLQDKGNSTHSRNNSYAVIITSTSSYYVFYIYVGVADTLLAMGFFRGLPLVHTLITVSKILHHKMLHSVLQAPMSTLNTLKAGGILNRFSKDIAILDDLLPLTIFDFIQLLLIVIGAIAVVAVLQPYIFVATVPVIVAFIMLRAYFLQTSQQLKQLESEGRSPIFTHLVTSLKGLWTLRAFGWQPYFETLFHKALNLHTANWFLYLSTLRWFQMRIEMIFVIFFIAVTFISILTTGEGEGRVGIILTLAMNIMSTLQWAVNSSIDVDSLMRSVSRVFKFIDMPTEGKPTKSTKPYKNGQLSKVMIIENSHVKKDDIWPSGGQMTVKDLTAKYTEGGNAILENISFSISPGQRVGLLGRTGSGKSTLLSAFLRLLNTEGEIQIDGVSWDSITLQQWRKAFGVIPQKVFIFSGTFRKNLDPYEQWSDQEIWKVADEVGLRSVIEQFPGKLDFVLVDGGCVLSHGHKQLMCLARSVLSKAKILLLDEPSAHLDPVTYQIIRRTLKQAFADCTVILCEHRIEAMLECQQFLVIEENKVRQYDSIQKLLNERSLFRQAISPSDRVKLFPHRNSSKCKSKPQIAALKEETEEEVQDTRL
T4 sequence (P13569 with tags, fused parts or gaps F81A/DEL508-508): as the sequence (P13569 with tags, fused parts or gaps DEL508-508/R1070W) above, with F81A, W1069R counted along it
T5 sequence (P13569 with tags, fused parts or gaps R74A/DEL508-508): as the sequence (P13569 with tags, fused parts or gaps DEL508-508/R1070W) above, with R74A, W1069R counted along it
T6 sequence (P13569 with tags, fused parts or gaps W361A/DEL508-508): as the sequence (P13569 with tags, fused parts or gaps DEL508-508/R1070W) above, with W361A, W1069R counted along it
T1 sequence (P13569 837-1196): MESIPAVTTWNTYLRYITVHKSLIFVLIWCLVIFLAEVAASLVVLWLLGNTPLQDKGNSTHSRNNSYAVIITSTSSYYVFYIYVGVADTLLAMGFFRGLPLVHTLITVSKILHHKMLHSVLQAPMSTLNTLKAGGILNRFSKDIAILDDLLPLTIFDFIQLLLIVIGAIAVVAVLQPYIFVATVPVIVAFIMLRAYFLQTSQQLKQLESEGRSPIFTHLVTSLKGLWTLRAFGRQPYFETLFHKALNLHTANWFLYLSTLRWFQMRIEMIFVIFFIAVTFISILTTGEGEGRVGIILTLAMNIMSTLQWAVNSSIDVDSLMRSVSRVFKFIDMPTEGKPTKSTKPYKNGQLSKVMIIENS
T3 sequence (P13569 with tags, fused parts or gaps A198Y/DEL508-508): as the sequence (P13569 with tags, fused parts or gaps DEL508-508/R1070W) above, with A198Y, W1069R counted along it
T2 sequence (P13569 1-380): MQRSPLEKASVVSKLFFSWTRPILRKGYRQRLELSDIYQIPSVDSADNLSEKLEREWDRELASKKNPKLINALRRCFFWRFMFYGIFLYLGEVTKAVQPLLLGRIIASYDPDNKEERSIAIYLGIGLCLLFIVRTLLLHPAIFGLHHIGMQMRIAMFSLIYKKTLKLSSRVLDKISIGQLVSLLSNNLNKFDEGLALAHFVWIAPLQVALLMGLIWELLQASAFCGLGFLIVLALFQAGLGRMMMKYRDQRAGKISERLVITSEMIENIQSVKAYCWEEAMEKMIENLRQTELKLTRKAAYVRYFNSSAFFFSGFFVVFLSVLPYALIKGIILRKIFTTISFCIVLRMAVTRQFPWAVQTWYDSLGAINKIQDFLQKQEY

MSD2 stability (CFTR MSD2): no effect | MSD1 half-life (CFTR MSD1): increased | Effect of second mutation on corrector-induced maturation of F508del-CFTR [1]: markedly reduced or abolished | Effect of second mutation on corrector-induced maturation of F508del-CFTR [2]: markedly reduced or abolished | Effect of second mutation on corrector-induced maturation of F508del-CFTR [3]: only slightly reduced | Effect of second mutation on corrector-induced maturation of F508del-CFTR [4]: markedly reduced or abolished | F508del/R1070W protein maturation (F508del/R1070W-CFTR): further enhanced
Compound: CN(C(=O)c1cccc(-n2nc(C(F)(F)F)c3c2[C@@H](Oc2ccc(C(=O)O)cc2)CCC3)c1)c1ccc2c(c1)OC(F)(F)O2 [ARN23765]
Effect on the protein gating (CFTR): no effect
